According to US11236084B2, “Substituted azaindoline derivatives as NIK inhibitors” (Janssen Pharmaceutica NV, priority 2017, dated 2022):
Like-named read-outs stand apart in the source and are kept apart here.

What was measured:
[1] = test system: P-IKKα levels in L363 (NIK translocated multiple myeloma) cells; experiment: Biological Assay C: effect of compounds on P-IKKα levels in L363 (NIK translocated multiple myeloma) cells, performed at 2 locations; assay type: cell-based, human; conditions: Homo sapiens, L-363, location 2; L363 cells, P-IKKα levels; averaged values; read-out: Assay C location 2 IC50
Method: Effect of Compounds on P-IKKα Levels in L363 (NIK Translocated Multiple Myeloma) Cells
All compounds tested were dissolved in DMSO and further dilutions were made in culture medium. Final DMSO concentration was 1% (v/v) in cell assays. The human L363 cells (ATCC) were cultured in RPMI 1640 medium supplemented with GlutaMax and 10% fetal calf serum (PAA). Cells were routinely maintained at densities of 0.2×10^6 cells per ml-1×10^6 cells per ml at 37° C. in a humidified 5% CO2 atmosphere. Cells were passaged twice a week splitting back to obtain the low density. Cells were seeded in 96 well plates (Nunc 167008) at 2×10^6 per ml media in a volume of 75 μl per well plus 25 μl […] recombinant human B-cell activating factor (BAFF/BLyS/TNFSF13B). Seeded cells were incubated at 37° C. in a humidified 5% CO2 atmosphere for 24 hr. Drugs and/or solvents were added (20 μl) to a final volume of 120 μl. Following 2 hr treatment plates were removed from the incubator and cell lysis was achieved by the addition of 30 μl 5× lysis buffer followed by shaking on a plate shaker at 4° C. for 10 min. At the end of this incubation lysed cells were centrifuged at 800×g for 20 min at 4° C. and the lysate was assessed for P-IKKα levels by sandwich immuno-assay carried out in anti-rabbit antibody coated Mesoscale plates. Within an experiment, the results for each treatment were the mean of 2 replicate wells. For initial screening purposes, compounds were tested using an 8 point dilution curve (serial 1:3 dilutions). For each experiment, controls (containing MG132 and BAFF but no test drug) and a blank incubation (containing MG132 and BAFF and 1 μM ADS125117, a test concentration known to give full inhibition) were run in parallel. The blank incubation value was subtracted from all control and sample values. To determine the IC50 a sigmoidal curve was fitted to the plot of % inhibition of control P-IKKα levels versus Log10 compound concentration.
Assay C was performed at 2 different locations.
Data for the compounds of the invention in the above assays are provided in Table A (the values in Table are averaged values over all measurements on all batches of a compound; values as IC50 (nM)). (‘n.c.’ means not calculated: ‘Co.’ means compound)

[2] = biological target: recombinant human NF-kappaB-inducing kinase (NIK/MAP3K14) (Homo sapiens, UniProt Q99558); experiment: Biological Assay B: inhibition of auto-phosphorylation of recombinant human NIK/MAP3K14 (AlphaScreen), performed at 2 locations; assay type: biochemical; conditions: averaged values
Sequence of recombinant human NF-kappaB-inducing kinase (NIK/MAP3K14) (Q99558 whole entry): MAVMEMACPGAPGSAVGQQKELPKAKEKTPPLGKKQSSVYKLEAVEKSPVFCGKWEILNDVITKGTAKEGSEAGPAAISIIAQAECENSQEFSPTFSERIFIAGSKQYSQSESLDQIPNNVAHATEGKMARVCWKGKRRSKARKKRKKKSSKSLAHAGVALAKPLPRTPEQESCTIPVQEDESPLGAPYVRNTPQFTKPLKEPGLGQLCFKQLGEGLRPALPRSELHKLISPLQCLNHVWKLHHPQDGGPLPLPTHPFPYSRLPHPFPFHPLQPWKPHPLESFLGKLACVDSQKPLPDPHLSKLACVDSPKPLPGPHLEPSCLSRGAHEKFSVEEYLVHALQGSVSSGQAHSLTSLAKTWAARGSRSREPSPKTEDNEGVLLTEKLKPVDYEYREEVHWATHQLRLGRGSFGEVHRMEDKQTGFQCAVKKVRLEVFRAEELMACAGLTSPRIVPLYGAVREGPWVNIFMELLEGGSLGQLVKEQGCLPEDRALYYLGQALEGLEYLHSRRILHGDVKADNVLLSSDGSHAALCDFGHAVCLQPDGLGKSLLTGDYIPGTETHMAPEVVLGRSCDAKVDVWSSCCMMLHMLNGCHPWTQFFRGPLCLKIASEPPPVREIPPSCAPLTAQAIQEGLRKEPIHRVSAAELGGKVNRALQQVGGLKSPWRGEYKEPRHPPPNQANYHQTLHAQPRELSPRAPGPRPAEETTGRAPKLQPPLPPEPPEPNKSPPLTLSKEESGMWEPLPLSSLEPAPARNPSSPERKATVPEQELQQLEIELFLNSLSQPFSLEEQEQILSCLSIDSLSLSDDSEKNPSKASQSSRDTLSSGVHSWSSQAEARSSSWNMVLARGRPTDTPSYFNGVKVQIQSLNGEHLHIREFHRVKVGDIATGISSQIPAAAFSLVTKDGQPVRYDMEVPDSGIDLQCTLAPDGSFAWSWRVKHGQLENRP
In short: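 GST-tagged NIK (0.2 nM) auto-phosphorylation with 25 microM ATP in 50 mM Tris pH 7.5, 5 mM MgCl2, 1% DMSO, 1 h at 25° C. Anti-phospho-IKK Ser176/180 AlphaScreen readout; blank-subtracted IC50 from sigmoidal fit. Run at two sites.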

[3] = location 1, AlphaScreen auto-phosphorylation, read-out: Assay B location 1 IC50
[4] = location 2, AlphaScreen auto-phosphorylation, read-out: Assay B location 2 IC50
[5] = location 2, NIK auto-phosphorylation, AlphaScreen, read-out: Assay B location 2 IC50

| Structure (SMILES) | IC50 [2, 3] | IC50 [2, 4] | further results |
| --- | --- | --- | --- |
| Cc1cc(C(=O)NC2CCN(C)CC2)ccc1Nc1nccc(-c2cnc3c(c2)C(C)(C)CN3)n1 [Compound 35] | – | – | IC50 [1]: 851 nM |
| Cc1cc(C(=O)NC2CCOCC2)ccc1Nc1nccc(-c2cnc3c(c2)C(C)(C)CN3)n1 [Compound 36] | – | – | IC50 [1]: 617 nM |
| CC(=O)NCc1cccc(Nc2nccc(-c3cnc4c(c3)C(C)(C)CN4)n2)c1C [Compound 42] | – | – | IC50 [1]: 166 nM |
| CC(=O)NCc1ccc(C)c(Nc2nccc(-c3cnc4c(c3)C(C)(C)CN4)n2)c1 [Compound 43] | – | – | IC50 [1]: 282 nM |
| COc1cc(C(=O)N2CCC(OC)CC2)c(Cl)cc1Nc1nccc(-c2cnc3c(c2)C(C)(CO)CN3)n1 (stereo not drawn) [Compound 296] | 5.3 nM | 1.2 nM | – |
| COc1cc(N2CC(O)C2)c(Cl)cc1Nc1nccc(-c2cnc3c(c2)C(C)(CO)CN3)n1 (stereo not drawn) [Compound 302] | – | 1.7 nM | – |
| COc1cc(N2CC(C)(C)C2)c(Cl)cc1Nc1nccc(-c2cnc3c(c2)C(C)(CO)CN3)n1 (stereo not drawn) [Compound 304] | 18.2 nM | 5.9 nM | – |
| COc1c(Nc2nccc(-c3cnc4c(c3)C(C)(CO)CN4)n2)cc(Cl)cc1N1CCOCC1 (stereo not drawn) [Compound 307] | 12.3 nM | 3.1 nM | – |
| COc1cc(N2CCN(C3CC3)CC2)c(Cl)cc1Nc1nccc(-c2cnc3c(c2)C(C)(CO)CN3)n1 (stereo not drawn) [Compound 309] | 6.8 nM | 2.2 nM | – |
| COCCN1CCN(c2cc(OC)c(Nc3nccc(-c4cnc5c(c4)C(C)(CO)CN5)n3)cc2Cl)CC1 (stereo not drawn) [Compound 311] | 3.9 nM | 0.9 nM | – |
| COc1cc(N2CC(C)(O)C2)c(Cl)cc1Nc1nccc(-c2cnc3c(c2)C(C)(CO)CN3)n1 (stereo not drawn) [Compound 313] | 6.9 nM | 4.9 nM | – |
| COc1cc(OCCN(C)C)c(Cl)cc1Nc1nccc(-c2cnc3c(c2)C(C)(CO)CN3)n1 (stereo not drawn) [Compound 314] | 4.1 nM | 3.1 nM | – |
| COc1cc(C2CCN(C)CC2)c(Cl)cc1Nc1nccc(-c2cnc3c(c2)C(C)(CO)CN3)n1 (stereo not drawn) [Compound 317] | 1.6 nM | 1.7 nM | – |
| CCN1CCN(c2cc(OC)c(Nc3nccc(-c4cnc5c(c4)C(C)(CO)CN5)n3)cc2C)CC1 (stereo not drawn) [Compound 318] | 4.9 nM | 1.5 nM | – |
| COCCN1CCC(c2cc(OC)c(Nc3nccc(-c4cnc5c(c4)C(C)(CO)CN5)n3)cc2Cl)CC1 (stereo not drawn) [Compound 319] | 4.2 nM | 1.2 nM | – |
| COc1cc(OCCN2CCN(C)CC2)c(Cl)cc1Nc1nccc(-c2cnc3c(c2)C(C)(CO)CN3)n1 (stereo not drawn) [Compound 320] | 2.7 nM | 1 nM | – |
| COCCN1CC(c2cc(OC)c(Nc3nccc(-c4cnc5c(c4)C(C)(CO)CN5)n3)cc2Cl)C1 (stereo not drawn) [Compound 321] | 3.6 nM | 1.6 nM | – |
| COc1cc(OCC(=O)N(C)C)c(Cl)cc1Nc1nccc(-c2cnc3c(c2)C(C)(CO)CN3)n1 (stereo not drawn) [Compound 322] | – | 1.7 nM | – |
| COCC(C)(C)CNc1cc(OC)c(Nc2nccc(-c3cnc4c(c3)C(C)(CO)CN4)n2)cc1F (stereo not drawn) [Compound 323] | 22.9 nM | 7.2 nM | – |
| COc1cc(CN2CCOCC2)c(Cl)cc1Nc1nccc(-c2cnc3c(c2)C(C)(CO)CN3)n1 (stereo not drawn) [Compound 324] | 7.9 nM | 3.8 nM | – |
| COc1cc(N2CCC(O)C2)c(Cl)cc1Nc1nccc(-c2cnc3c(c2)C(C)(CO)CN3)n1 (stereo not drawn) [Compound 325] | – | 3.6 nM | – |
| COc1cc(N2CCC(OC)CC2)c(Cl)cc1Nc1nccc(-c2cnc3c(c2)C(C)(CO)CN3)n1 (stereo not drawn) [Compound 327] | 6.3 nM | 2.3 nM | – |
| CCN1CCN(C(=O)c2cc(OC)c(Nc3nccc(-c4cnc5c(c4)C(C)(CO)CN5)n3)cc2Cl)CC1 (stereo not drawn) [Compound 328] | – | 1.5 nM | – |

| Structure (SMILES) | IC50 [2, 3] | IC50 [2, 4] | further results |
| --- | --- | --- | --- |
| CCN1CCN(c2cc(OC)c(Nc3nccc(-c4cnc5c(c4)C(C)(C)CN5)n3)cc2Cl)CC1 [Compound 329] | 3.8 nM | 1.7 nM | – |
| COc1cc(N2CCC(N(C)C)CC2)c(Cl)cc1Nc1nccc(-c2cnc3c(c2)C(C)(C)CN3)n1 [Compound 330] | 3.6 nM | 0.7 nM | – |
| COc1cc(CO)c(Cl)cc1Nc1nccc(-c2cnc3c(c2)C(C)(CO)CN3)n1 (stereo not drawn) [Compound 332] | – | 1.1 nM | – |
| COc1cc(N2CCC(C)(O)CC2)c(Cl)cc1Nc1nccc(-c2cnc3c(c2)C(C)(CO)CN3)n1 (stereo not drawn) [Compound 333] | – | 2.2 nM | – |
| COc1cc(N2CCC(O)CC2)c(Cl)cc1Nc1nccc(-c2cnc3c(c2)C(C)(C)CN3)n1 [Compound 336] | – | – | IC50 [2, 5]: 3.6 nM |
| CCN1CCN(Cc2cc(OC)c(Nc3nccc(-c4cnc5c(c4)C(C)(CO)CN5)n3)cc2Cl)CC1 (stereo not drawn) [Compound 337] | – | – | IC50 [2, 5]: 1.6 nM |
| COc1cc(CO)c(Cl)cc1Nc1nccc(-c2cnc3c(c2)C(C)(C)CN3)n1 [Compound 339] | – | – | IC50 [2, 5]: 5.6 nM |
| COc1cc(OCCN2CCOCC2)c(Cl)cc1Nc1nccc(-c2cnc3c(c2)C(C)(CO)CN3)n1 (stereo not drawn) [Compound 340] | – | – | IC50 [2, 5]: 2.6 nM |
| COc1cc(N2CC3(CCOCC3)C2)c(Cl)cc1Nc1ncc(F)c(-c2cnc3c(c2)C(C)(CO)CN3)n1 (stereo not drawn) [Compound 346] | – | – | IC50 ([2]; location 1, NIK auto-phosphorylation, AlphaScreen, read-out: Assay B location 1 IC50): 7.4 nM |
| CCOC1CN(c2cc(OC)c(Nc3nccc(-c4cnc5c(c4)C(C)(CO)CN5)n3)cc2Cl)C1 (stereo not drawn) [Compound 357] | 12 nM | 10 nM | – |
| Cc1cc(N2CCOCC2)c(Cl)cc1Nc1nccc(-c2cnc3c(c2)C(C)(CO)CN3)n1 (stereo not drawn) [Compound 361] | 7.8 nM | 3.7 nM | – |
| CC1(CO)CNc2ncc(-c3ccnc(Nc4cc(Cl)c(N5CCOCC5)cc4Cl)n3)cc21 (stereo not drawn) [Compound 362] | 6.9 nM | 3.6 nM | – |
| Cc1cc(N2CCOCC2)c(C#N)cc1Nc1nccc(-c2cnc3c(c2)C(C)(CO)CN3)n1 (stereo not drawn) [Compound 363] | 17.8 nM | 10.7 nM | – |
| CC1(CO)CNc2ncc(-c3ccnc(Nc4cc(C#N)c(N5CCOCC5)cc4Cl)n3)cc21 (stereo not drawn) [Compound 364] | 10.2 nM | 6.9 nM | – |
| CC1(CO)CNc2ncc(-c3ccnc(Nc4cc(F)c(N5CCOCC5)cc4Cl)n3)cc21 (stereo not drawn) [Compound 365] | 13.8 nM | 11 nM | – |
| Cc1cc(N2CCOCC2)c(F)cc1Nc1nccc(-c2cnc3c(c2)C(C)(CO)CN3)n1 (stereo not drawn) [Compound 366] | 22.9 nM | 12.9 nM | – |
| COCCOc1cc(N2CCOCC2)c(Cl)cc1Nc1nccc(-c2cnc3c(c2)C(C)(CO)CN3)n1 (stereo not drawn) [Compound 367] | 87.1 nM | 21.9 nM | – |
| COCCOc1cc(N2CCOCC2)c(F)cc1Nc1nccc(-c2cnc3c(c2)C(C)(CO)CN3)n1 (stereo not drawn) [Compound 368] | 191 nM | 112 nM | – |
| COCCOc1cc(N2CCOCC2)c(C#N)cc1Nc1nccc(-c2cnc3c(c2)C(C)(CO)CN3)n1 (stereo not drawn) [Compound 369] | 123 nM | 64.6 nM | – |
| CN(C)CCOc1cc(N2CCOCC2)c(F)cc1Nc1nccc(-c2cnc3c(c2)C(C)(CO)CN3)n1 (stereo not drawn) [Compound 370] | 1620 nM | 977 nM | – |
| CN(C)CCOc1cc(N2CCOCC2)c(Cl)cc1Nc1nccc(-c2cnc3c(c2)C(C)(CO)CN3)n1 (stereo not drawn) [Compound 371] | 437 nM | 209 nM | – |
| COc1cc(N2CC3(CCOCC3)C2)c(C#N)cc1Nc1nccc(-c2cnc3c(c2)C(C)(CO)CN3)n1 (stereo not drawn) [Compound 372] | 13.4 nM | 1.6 nM | – |
